As a reminder, the AUC(0-t) is the area under the concentration-time curve up to a stated or last time point. High values mean high exposure, low ones low exposure. As a reminder, the Cmax is the peak of the concentration-time curve. For orientation: Tmax means the time at which the peak concentration occurs.

Results on eight compounds are retold here after patent US20090306228A1, “ACTIVE AGENT DELIVERY SYSTEMS AND METHODS FOR PROTECTING AND ADMINISTERING ACTIVE AGENTS” (priority 2000, published 2009).

“And” between values parts separate entries of the source, which are not always exact repeats. Identical values can stand only once. Some results are limits rather than exact numbers.

Data set [1] can be described thus: In vivo performance of polyglutamic acid-AZT conjugate lot TM-113, plasma AZT by ELISA. Details: species or system Sprague-Dawley rats. Particulars: for Plasma concentration of individual rats: Rat #1-#5. Here is the method:
[…]. Polyglutarnic acid-AZT conjugate was given to five rats at a dose containing 15 mg/kg of AZT.
On the technique in general: An ELISA detects its analyte on a solid surface through an enzyme-linked reagent.

The next data set is described as follows: in vivo. Particulars: male, Sprague-Dawley, rat, plasma, po.
The conditions of data set [2]: after oral administration; cited from earlier work.
For data set [3] the following is noted: female, Sprague Dawley, rat, in vivo, po.
A further data set concerns the target pepsin (Sus scrofa, UniProt P00791). The note with it: pig, 4 h, pH 1.2.
For a further data set, the system named is pancreatin. Particulars: pig, 24 h, pH 7.5.
Data set [4] has as its system protease (type XIV, pronase). Particulars: Streptomyces griseus, 24 h, pH 8.4.
The nature of data set [5]: In vivo performance of polyserine-naltrexone conjugate lot BB-272, serum naltrexone by ELISA. The note with it: for Serum concentration of individual rats: 3.6 mg naltrexone (12 mg conjugate BB-272), Rat #1-#4. Here is the method: No excipients were added to the capsules.
A short description of data set [6]: In vivo performance of polyserine-naltrexone conjugate lot BB-301, serum naltrexone by ELISA. Particulars: oral capsule; for Serum concentration of individual rats: 3.6 mg naltrexone (12.9 mg conjugate BB-301), Rat #1-#5.
Where [7] appears, read: male, Sprague-Dawley, rat, plasma, po, 15 mg/kg.
Where [8] appears, read: male, Sprague Dawley, rat, in vivo, po, 3.6 mg.

pepsin, sequence (P00791 60-385): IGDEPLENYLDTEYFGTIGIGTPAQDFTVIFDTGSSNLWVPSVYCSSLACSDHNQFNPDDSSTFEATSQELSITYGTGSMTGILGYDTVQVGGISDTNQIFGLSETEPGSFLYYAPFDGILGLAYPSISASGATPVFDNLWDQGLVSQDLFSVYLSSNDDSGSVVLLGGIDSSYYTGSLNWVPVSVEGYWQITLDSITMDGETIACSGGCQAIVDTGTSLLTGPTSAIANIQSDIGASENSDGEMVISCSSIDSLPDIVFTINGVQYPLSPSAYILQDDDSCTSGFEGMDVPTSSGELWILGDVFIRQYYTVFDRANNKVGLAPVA

On to `Cc1cn([C@H]2C[C@H](N=[N+]=[N-])[C@@H](CO)O2)c(=O)[nH]c1=O` [AZT, 3′-azido-3′-deoxythymidine], for which, in [1] (setting [7]), the AUC(0-t) stood at 4040 ng·h/mL. In addition, the highest level in data set [1] (setting [7]) (Cmax) was 2390 ng/mL. Also, the Tmax (in data set [1] (setting [7]); in “in vivo”) was 30 min throughout. In data set [1] (male, Sprague-Dawley, rat, plasma, po, 15 mg/kg, 15 mg/kg of AZT, lot TM-113, 0 hours), this compound returned a concentration at 0 h of 7 ng/mL. Moreover, the concentration at 0.5 h in data set [1] (male, Sprague-Dawley, rat, plasma, po, 15 mg/kg, 15 mg/kg of AZT, lot TM-113, 0.5 hours) is 2390 ng/mL. In addition, the concentration at 3 h in data set [1] (male, Sprague-Dawley, rat, plasma, po, 15 mg/kg, 15 mg/kg of AZT, lot TM-113, 3 hours) turned out to be 223 ng/mL. Also, the concentration at 5 h in data set [1] (male, Sprague-Dawley, rat, plasma, po, 15 mg/kg, 15 mg/kg of AZT, lot TM-113, 5 hours) was 49 ng/mL. The concentration at 8 h in [1] (male, Sprague-Dawley, rat, plasma, po, 15 mg/kg, 15 mg/kg of AZT, lot TM-113, 8 hours) amounted to 11 ng/mL. The concentration at 12 h in data set [1] (male, Sprague-Dawley, rat, plasma, po, 15 mg/kg, 15 mg/kg of AZT, lot TM-113, 12 hours) was found to be 36 ng/mL. The concentration at 24 h in data set [1] (male, Sprague-Dawley, rat, plasma, po, 15 mg/kg, 15 mg/kg of AZT, lot TM-113, 24 hours) stood at 8 ng/mL. Besides, the “time at which AZT plasma levels spiked” value in data set [1] (oral, 15 mg/kg of AZT) was 0.5 h. Further, in data set [1] (oral, 15 mg/kg of AZT, lot TM-113), the “time for which plasma levels of AZT remained elevated” value was less than 3 h. Moreover, the “Plasma concentration of individual rats” value was 6 ng/mL and 4 ng/mL and 2 ng/mL and 9 ng/mL and 14 ng/mL in [1] (oral, 15 mg/kg of AZT, lot TM-113, 0 hours, 15 mg/kg); 4520 ng/mL and 2108 ng/mL and 2657 ng/mL and 1978 ng/mL and 690 ng/mL in data set [1] (oral, 15 mg/kg of AZT, lot TM-113, 0.5 hours, 15 mg/kg); 598 ng/mL and 132 ng/mL and 200 ng/mL and 94 ng/mL and 93 ng/mL in data set [1] (oral, 15 mg/kg of AZT, lot TM-113, 3 hours, 15 mg/kg); 79 ng/mL and 25 ng/mL and 78 ng/mL and 26 ng/mL and 39 ng/mL in data set [1] (oral, 15 mg/kg of AZT, lot TM-113, 5 hours, 15 mg/kg); 16 ng/mL and 18 ng/mL and 12 ng/mL and 4 ng/mL and 5 ng/mL in [1] (oral, 15 mg/kg of AZT, lot TM-113, 8 hours, 15 mg/kg); 101 ng/mL and 38 ng/mL and 28 ng/mL and 2 ng/mL and 6 ng/mL in [1] (oral, 15 mg/kg of AZT, lot TM-113, 12 hours, 15 mg/kg). For the same compound, the “Plasma concentration of individual rats” value in data set [1] (oral, 15 mg/kg of AZT, lot TM-113, 24 hours, 15 mg/kg) is 13 ng/mL and 12 ng/mL and 4 ng/mL and 8 ng/mL and 3 ng/mL.
Consider `CC1OC(OC2C(O)CC(OC3C(O)CC(O[C@H]4CCC5(C)C(CCC6[C@@H]5CC(O)C5(C)[C@@H](C7=CC(=O)OC7)CCC65O)C4)OC3C)OC2C)CC(O)C1O` (stereo partly drawn) [Digoxin, digoxin], for which, in data set [2], the “time until an effect is evident” value is 1 to 2 h.
For the compound `NS(=O)(=O)c1cc(C(=O)O)c(NCc2ccco2)cc1Cl` [Furosemide], in data set [3], the “9 hour serum level as percent of its 3 hour level” value came to 59.8%.
For the compound `Cc1ccc(C)c(OCCCC(C)(C)C(=O)O)c1` [Gemfibrozil, 5-(2,5-dimethylphenoxy)-2,2-dimethylpentanoic acid], the “Stomach (simulator, release of active agent from peptide conjugate)” value with pepsin is given as 0%. For the same compound, in the data set on pancreatin, the “Intestine (simulator, release of active agent from peptide conjugate)” value is 3.60%. In addition, in data set [4], the “Pronase (release of active agent from peptide conjugate)” value was 2%.
For `Nc1ccc(O)c(C(=O)O)c1` [Mesalamine, 5-amino-2-hydroxybenzoic acid] the same measures were 11%, 10% and 46%.
For `CCN(CC)CCNC(=O)c1cc(Cl)c(N)cc1OC` [Metoclopramide], in that order: 0%, 95.20% and 6.50%.
For `Cc1ncc([N+](=O)[O-])n1CCO` [Metronidazole] the same measures were 20.20%, 64.30% and 28.90%.
The compound `O=C1CC[C@@]2(O)[C@H]3Cc4ccc(O)c5c4[C@@]2(CCN3CC2CC2)[C@H]1O5` [Naltrexone] showed a concentration at 2 h in [5] (setting [8]) of 46 ng/mL. Besides, the concentration at 4 h in [5] (setting [8]) turned out to be 11 ng/mL. In addition, the concentration at 6 h in data set [5] (setting [8]) was 9 ng/mL. In addition, in [5] (setting [8]), the concentration at 9 h amounted to 3 ng/mL. Also, the “Serum concentration of individual rats” value was 33 ng/mL and 91 ng/mL and 37 ng/mL and 22 ng/mL in data set [5] (oral capsule, 2 hours); 6 ng/mL and 25 ng/mL and 12 ng/mL and 3 ng/mL in [5] (oral capsule, 4 hours); 13 ng/mL and 10 ng/mL and 8 ng/mL and 6 ng/mL in [5] (oral capsule, 6 hours); 3 ng/mL and 6 ng/mL and 2 ng/mL and 1 ng/mL in data set [5] (oral capsule, 9 hours); 2 ng/mL (2×) and 1 ng/mL in [5] (oral capsule, 12 hours); 39 ng/mL and 141 ng/mL and 128 ng/mL and 126 ng/mL and 142 ng/mL in data set [6] (0.5 hours). Besides, the “Serum concentration of individual rats” value in data set [6] (3 hours) is 91 ng/mL and 62 ng/mL and 44 ng/mL and 30 ng/mL and 46 ng/mL; in [6] (5 hours), 45 ng/mL and 193 ng/mL and 16 ng/mL and 8 ng/mL and 19 ng/mL; in data set [6] (8 hours), 19 ng/mL and 6 ng/mL and 2 ng/mL and 5 ng/mL and 4 ng/mL; in data set [6] (12 hours), 3 ng/mL (2×) and 1 ng/mL and 2 ng/mL (2×); in data set [6] (15 hours), 4 ng/mL and 1 ng/mL (2×) and 2 ng/mL (2×); in [6] (24 hours), 2 ng/mL (2×) and 1 ng/mL (2×) and 3 ng/mL. In data set [5] (oral capsule, 3.6 mg naltrexone, lot BB-272, 12 hours), the “Mean serum concentration +/- SD” value stood at 1 ± 1 ng/mL. In [5] (oral capsule, lot BB-272, 2 hours was the first measurement), the “time at which serum levels spiked” value came out at 2 h. The “time at which naltrexone serum levels spiked” value in data set [6] (equal dose, lot BB-301) amounted to 0.5 h. The “time for which serum levels of naltrexone remained elevated” value in data set [6] (equal dose, lot BB-301) is less than 8 h.
